Measured values: PubChem BioAssay AID330 (DTP/NCI, 2004)
Several values for one entry are separate records, joined by “and”; a condition that tells them apart may be missing. Identical values can stand only once. Inconclusive results and toxic doses are left out.

Tested on: P388 leukemia ip, CD2F1 mice, survival T/C
Assay: NCI In Vivo Anticancer Drug Screen. Data for tumor model P388 Leukemia (intraperitoneal) in CD2F1 (CDF1) mice
Conditions: endpoint: median survival time, higher = longer survival
In short: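 Mice carrying the transplanted tumor received test compound or vehicle. Survival was recorded in each group, and the value is the treated-group measurement divided by that of the vehicle-treated control group.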

[1] = dose: 50.0 mg/kg/injection, schedule: Q01DX005 (ip), vehicle: saline with Tween-80
[2] = dose: 100.0 mg/kg/injection, schedule: Q01DX005 (ip), vehicle: saline with Tween-80
[3] = dose: 200.0 mg/kg/injection, schedule: Q01DX005 (ip), vehicle: saline with Tween-80
[4] = dose: 50.0 mg/kg/injection, schedule: Q01DX009 (ip), vehicle: saline with Tween-80
[5] = dose: 100.0 mg/kg/injection, schedule: Q01DX009 (ip), vehicle: saline with Tween-80
[6] = dose: 200.0 mg/kg/injection, schedule: Q01DX009 (ip), vehicle: saline with Tween-80
[7] = dose: 6.25 mg/kg/injection, schedule: Q01DX009 (ip), vehicle: saline with Tween-80
[8] = dose: 12.5 mg/kg/injection, schedule: Q01DX009 (ip), vehicle: saline with Tween-80
[9] = dose: 25.0 mg/kg/injection, schedule: Q01DX009 (ip), vehicle: saline with Tween-80
[10] = dose: 50.0 mg/kg/injection, schedule: Q01DX009 (ip), vehicle: saline
[11] = dose: 100.0 mg/kg/injection, schedule: Q01DX009 (ip), vehicle: saline
[12] = dose: 200.0 mg/kg/injection, schedule: Q01DX009 (ip), vehicle: saline

Nc1ccc2nc(-c3ccccc3)c(=O)oc2c1
T/C (dose: 60.0 mg/kg/injection, schedule: Q01DX005 (ip), vehicle: saline with Tween-80): 97 % of control
T/C (dose: 120.0 mg/kg/injection, schedule: Q01DX005 (ip), vehicle: saline with Tween-80): 98 % of control

C[n+]1c(/C=C/c2ccc(N3CCCC3)cc2)sc2ccccc21
T/C (dose: 0.79 mg/kg/injection, schedule: Q01DX009 (ip), vehicle: saline): 105 % of control
T/C (dose: 1.56 mg/kg/injection, schedule: Q01DX009 (ip), vehicle: saline): 95 % of control
T/C (dose: 3.12 mg/kg/injection, schedule: Q01DX009 (ip), vehicle: saline): 106 % of control and 117 % of control
T/C (dose: 6.25 mg/kg/injection, schedule: Q01DX009 (ip), vehicle: saline): 108 % of control

CC1=NN(C(=O)NS(=O)(=O)c2ccc(CCNC(=O)c3nccnc3N)cc2)C(C)(C)C1
T/C [1]: 102 % of control
T/C [2]: 105 % of control
T/C [3]: 102 % of control

COc1cccc2c1NC(O)c1cccn1C2=O (stereo not drawn)
T/C (dose: 0.1 mg/kg/injection, schedule: Q01DX005 (ip), vehicle: water): 93 % of control
T/C (dose: 0.2 mg/kg/injection, schedule: Q01DX005 (ip), vehicle: water): 93 % of control
T/C (dose: 0.4 mg/kg/injection, schedule: Q01DX005 (ip), vehicle: water): 96 % of control
T/C (dose: 0.8 mg/kg/injection, schedule: Q01DX005 (ip), vehicle: water): 93 % of control
T/C (dose: 1.6 mg/kg/injection, schedule: Q01DX005 (ip), vehicle: water): 98 % of control
T/C (dose: 5.0 mg/kg/injection, schedule: Q01DX005 (ip), vehicle: distilled water + Tween-80): 90 % of control
T/C (dose: 10.0 mg/kg/injection, schedule: Q01DX005 (ip), vehicle: distilled water + Tween-80): 98 % of control
T/C (dose: 20.0 mg/kg/injection, schedule: Q01DX005 (ip), vehicle: distilled water + Tween-80): 100 % of control
T/C (dose: 40.0 mg/kg/injection, schedule: Q01DX005 (ip), vehicle: distilled water + Tween-80): 100 % of control
T/C (dose: 80.0 mg/kg/injection, schedule: Q01DX005 (ip), vehicle: distilled water + Tween-80): 93 % of control

COc1cc(C(NC(N)=O)c2cc3c(cc2O)OCO3)cc(OC)c1O (stereo not drawn)
T/C (dose: 60.0 mg/kg/injection, schedule: Q01DX005 (ip), vehicle: Klucel + Tween-80): 100 % of control
T/C (dose: 120.0 mg/kg/injection, schedule: Q01DX005 (ip), vehicle: Klucel + Tween-80): 88 % of control
T/C (dose: 240.0 mg/kg/injection, schedule: Q01DX005 (ip), vehicle: Klucel + Tween-80): 88 % of control

COc1ccc2c(c1OC)CC(=O)N1CCc3cc4c(cc3C(=O)C21)OCO4 (stereo not drawn)
T/C (dose: 2.5 mg/kg/injection, schedule: Q01DX005 (ip), vehicle: saline + Tween-80 + alcohol): 104 % of control
T/C (dose: 5.0 mg/kg/injection, schedule: Q01DX005 (ip), vehicle: saline + Tween-80 + alcohol): 101 % of control
T/C (dose: 10.0 mg/kg/injection, schedule: Q01DX005 (ip), vehicle: saline + Tween-80 + alcohol): 100 % of control
T/C (dose: 20.0 mg/kg/injection, schedule: Q01DX005 (ip), vehicle: saline + Tween-80 + alcohol): 107 % of control

CC(C)(C(=O)c1ccccc1)C(=O)c1ccccc1
T/C [4]: 95 % of control
T/C [5]: 100 % of control
T/C [6]: 95 % of control

CC/S(=N\S(=O)(=O)c1ccc(C)cc1)c1ccccc1 (stereo not drawn)
T/C [5]: 100 % of control
T/C [6]: 109 % of control
T/C (dose: 400.0 mg/kg/injection, schedule: Q01DX009 (ip), vehicle: saline with Tween-80): 100 % of control

O=C1C=CC(=O)N1n1cccc1
T/C (dose: 6.25 mg/kg/injection, schedule: Q01DX009 (ip), vehicle: Klucel (hydroxypropylcellulose) (HPC)): 105 % of control
T/C (dose: 12.5 mg/kg/injection, schedule: Q01DX009 (ip), vehicle: Klucel (hydroxypropylcellulose) (HPC)): 98 % of control
T/C (dose: 25.0 mg/kg/injection, schedule: Q01DX009 (ip), vehicle: Klucel (hydroxypropylcellulose) (HPC)): 90 % of control

ClC(Cl)(Cl)c1nc2nccnc2[nH]1
T/C [7]: 88 % of control
T/C [8]: 100 % of control
T/C [9]: 107 % of control and 90 % of control

COc1cc2ccc(CC(=S)N3CCOCC3)cc2cc1OC
T/C [5]: 90 % of control
T/C [6]: 90 % of control

CCOC(=O)C(SC(S(=O)(=O)c1ccccc1)S(=O)(=O)c1ccccc1)C(=O)OCC
T/C (dose: 50.0 mg/kg/injection, schedule: Q01DX009 (ip), vehicle: Klucel (hydroxypropylcellulose) (HPC)): 98 % of control
T/C (dose: 100.0 mg/kg/injection, schedule: Q01DX009 (ip), vehicle: Klucel (hydroxypropylcellulose) (HPC)): 90 % of control
T/C (dose: 200.0 mg/kg/injection, schedule: Q01DX009 (ip), vehicle: Klucel (hydroxypropylcellulose) (HPC)): 90 % of control

C=C1C(O)C23CCC4C(C(=O)O)(C(=O)O)CC(OC5OC(CO)C(O)C(OC(=O)CCc6ccccc6)C5NC(=O)CC(C)C)CC4(C)C2CCC1(O)C3 (stereo not drawn)
T/C (dose: 0.25 mg/kg/injection, schedule: Q01DX005 (ip), vehicle: Klucel (hydroxypropylcellulose) (HPC)): 96 % of control
T/C (dose: 0.5 mg/kg/injection, schedule: Q01DX005 (ip), vehicle: Klucel (hydroxypropylcellulose) (HPC)): 98 % of control
T/C (dose: 1.0 mg/kg/injection, schedule: Q01DX005 (ip), vehicle: Klucel (hydroxypropylcellulose) (HPC)): 100 % of control
T/C (dose: 3.12 mg/kg/injection, schedule: Q01DX005 (ip), vehicle: Klucel (hydroxypropylcellulose) (HPC)): 101 % of control

O=NNc1ccc(S(=O)(=O)c2ccc3ccccc3c2)cn1
T/C (dose: 3.12 mg/kg/injection, schedule: Q01DX009 (ip), vehicle: water): 120 % of control
T/C (dose: 6.25 mg/kg/injection, schedule: Q01DX009 (ip), vehicle: water): 115 % of control
T/C (dose: 12.5 mg/kg/injection, schedule: Q01DX009 (ip), vehicle: water): 116 % of control
T/C (dose: 25.0 mg/kg/injection, schedule: Q01DX009 (ip), vehicle: water): 109 % of control

O=C(Nc1cccc2c1C(=O)c1cccc(NC(=O)c3ccc(C(=O)Nc4cccc5c4C(=O)c4cccc(NC(=O)c6ccccc6)c4C5=O)cc3)c1C2=O)c1ccccc1
T/C [4]: 100 % of control
T/C [5]: 94 % of control
T/C [6]: 93 % of control

O=C1CCSC(=S)N1c1ccc(N=Nc2ccccc2)cc1
T/C [10]: 105 % of control
T/C [11]: 110 % of control
T/C [12]: 110 % of control

Cn1c(C(=O)O)cc(=O)cc1C(=O)O
T/C [7]: 100 % of control
T/C [8]: 101 % of control
T/C [9]: 95 % of control
T/C [4]: 100 % of control

CCOC(=O)Nc1cc2c(c(N)n1)N=C(c1ccc(OC)cc1)CN2
T/C (dose: 1.5 mg/kg/injection, schedule: Q01DX009 (ip), vehicle: Klucel (hydroxypropylcellulose) (HPC)): 105 % of control
T/C (dose: 6.25 mg/kg/injection, schedule: Q01DX001 (ip), vehicle: Klucel (hydroxypropylcellulose) (HPC)): 110 % of control
T/C (dose: 6.25 mg/kg/injection, schedule: Q04DX003 (ip), vehicle: Klucel (hydroxypropylcellulose) (HPC)): 110 % of control
T/C (dose: 12.5 mg/kg/injection, schedule: Q04DX003 (ip), vehicle: Klucel (hydroxypropylcellulose) (HPC)): 158 % of control
T/C (dose: 25.0 mg/kg/injection, schedule: Q01DX001 (ip), vehicle: Klucel (hydroxypropylcellulose) (HPC)): 150 % of control
T/C (dose: 25.0 mg/kg/injection, schedule: Q04DX003 (ip), vehicle: Klucel (hydroxypropylcellulose) (HPC)): 163 % of control

CCN(CC)CCCC(C)Nc1cc(C)c2nc(C)cc(C)c2c1C (stereo not drawn)
T/C (dose: 12.5 mg/kg/injection, schedule: Q01DX009 (ip), vehicle: saline): 98 % of control
T/C (dose: 25.0 mg/kg/injection, schedule: Q01DX009 (ip), vehicle: saline): 97 % of control
T/C [4]: 100 % of control
T/C [10]: 90 % of control

COc1cc2cnc(-c3ccc(Cl)c(Cl)c3)c(O)c2cc1OC
T/C [10]: 90 % of control
T/C [11]: 102 % of control
T/C [12]: 90 % of control

CCSc1ccc(C(=O)C2(C)Cc3ccccc3CN2)cc1 (stereo not drawn)
T/C (dose: 100.0 mg/kg/injection, schedule: Q01DX001 (ip), vehicle: saline with Tween-80): 100 % of control
T/C (dose: 200.0 mg/kg/injection, schedule: Q01DX001 (ip), vehicle: saline with Tween-80): 99 % of control
T/C (dose: 400.0 mg/kg/injection, schedule: Q01DX001 (ip), vehicle: saline with Tween-80): 98 % of control

Cc1cc(=O)c2ccc(N(C)C)cc2[nH]1
T/C [1]: 95 % of control
T/C [2]: 96 % of control
T/C [3]: 101 % of control

COCNC(=S)c1cc(C(=S)NCOC)c(C(=O)NC(C)(C)C)nc1C(=O)NC(C)(C)C
T/C (dose: 100.0 mg/kg/injection, schedule: Q04DX002 (ip), vehicle: saline with Tween-80): 92 % of control
T/C (dose: 200.0 mg/kg/injection, schedule: Q04DX002 (ip), vehicle: saline with Tween-80): 98 % of control
T/C (dose: 400.0 mg/kg/injection, schedule: Q04DX002 (ip), vehicle: saline with Tween-80): 93 % of control
